Measured values published in the NIST ThermoML archive (doi:10.1016/j.jct.2016.06.023).
Numbers after ± are expanded uncertainties.

Test: mn = molality of the nth substance listed, in mol/kg
Conditions: 101.3 kPa, Liquid, Vibrating tube method

O=C(O)CC(=O)O [propanedioic acid] + O
mass density [kg/m3]
Conditions	313.15 K	318.15 K	323.15 K	328.15 K	333.15 K	338.15 K	343.15 K
m1 = 0.01001	992.67 ± 0.4	990.67 ± 0.4	988.48 ± 0.4	986.12 ± 0.4	983.63 ± 0.4	980.99 ± 0.4	978.22 ± 0.4
m1 = 0.02001	993.03 ± 0.4	991.04 ± 0.4	988.85 ± 0.4	986.5 ± 0.4	984.01 ± 0.4	981.37 ± 0.4	978.59 ± 0.4
m1 = 0.03	993.37 ± 0.4	991.39 ± 0.4	989.19 ± 0.4	986.83 ± 0.4	984.34 ± 0.4	981.69 ± 0.4	978.9 ± 0.4
m1 = 0.03962	993.74 ± 0.4	991.75 ± 0.4	989.54 ± 0.4	987.17 ± 0.4	984.68 ± 0.4	982.03 ± 0.4	979.24 ± 0.4
m1 = 0.04998	994.12 ± 0.4	992.09 ± 0.4	989.92 ± 0.4	987.55 ± 0.4	985.05 ± 0.4	982.41 ± 0.4	979.6 ± 0.4
m1 = 0.05936	994.45 ± 0.4	992.44 ± 0.4	990.24 ± 0.4	987.86 ± 0.4	985.36 ± 0.4	982.72 ± 0.4	979.92 ± 0.4
m1 = 0.06926	994.8 ± 0.4	992.8 ± 0.4	990.58 ± 0.4	988.21 ± 0.4	985.69 ± 0.4	983 ± 0.4	980.22 ± 0.4
m1 = 0.07949	995.16 ± 0.4	993.16 ± 0.4	990.94 ± 0.4	988.56 ± 0.4	986.05 ± 0.4	983.39 ± 0.4	980.58 ± 0.4
m1 = 0.08906	995.51 ± 0.4	993.49 ± 0.4	991.26 ± 0.4	988.89 ± 0.4	986.37 ± 0.4	983.68 ± 0.4	980.9 ± 0.4
m1 = 0.09935	995.86 ± 0.4	993.83 ± 0.4	991.63 ± 0.4	989.26 ± 0.4	986.72 ± 0.4	984.02 ± 0.4	981.18 ± 0.4
m1 = 0.1984	999.32 ± 0.4	997.27 ± 0.4	995 ± 0.4	992.58 ± 0.4	990.02 ± 0.4	987.31 ± 0.4	984.49 ± 0.4
m1 = 0.2977	1002.76 ± 0.4	1000.66 ± 0.4	998.36 ± 0.4	995.89 ± 0.4	993.31 ± 0.4	990.55 ± 0.4	987.71 ± 0.4
m1 = 0.404	1006.4 ± 0.4	1004.17 ± 0.4	1001.82 ± 0.4	999.32 ± 0.4	996.78 ± 0.4	993.95 ± 0.4	991.05 ± 0.4
m1 = 0.5055	1009.9 ± 0.4	1007.57 ± 0.4	1005.17 ± 0.4	1002.63 ± 0.4	999.91 ± 0.4	997.16 ± 0.4	994.29 ± 0.4
m1 = 0.6055	1013.17 ± 0.4	1010.78 ± 0.4	1008.36 ± 0.4	1005.78 ± 0.4	1003.1 ± 0.4	1000.24 ± 0.4	997.39 ± 0.4
m1 = 0.6936	1016.02 ± 0.4	1013.61 ± 0.4	1011.15 ± 0.4	1008.54 ± 0.4	1005.81 ± 0.4	1002.93 ± 0.4	1000.21 ± 0.4
m1 = 0.7926	1019.25 ± 0.4	1016.73 ± 0.4	1014.23 ± 0.4	1011.64 ± 0.4	1008.99 ± 0.4	1006 ± 0.4	1002.97 ± 0.4
m1 = 0.891	1022.41 ± 0.4	1019.67 ± 0.4	1017.35 ± 0.4	1014.68 ± 0.4	1011.89 ± 0.4	1008.94 ± 0.4	1005.93 ± 0.4
m1 = 0.9895	1025.39 ± 0.4	1022.8 ± 0.4	1020.22 ± 0.4	1017.49 ± 0.4	1014.63 ± 0.4	1011.16 ± 0.4	1008.49 ± 0.4
